Results: ChEMBL document CHEMBL1201862, “PubChem BioAssay data set” (2004)
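Five compound concentrations were applied to cells in 96-well plates for 48 hours; endpoints were derived by simple linear interpolation of the resulting dose-response curve. GI50: concentration for 50% inhibition of growth.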 The source made the active and inactive calls. Rule as the data show it: active = GI50 up to about 1.1 µM and inactive = higher.

Columns and labels:
Test in all cases: DTP human tumour cell line panel, 48 h
786-0 = test system: 786-0
A549 = test system: A549
ACHN = test system: ACHN
BT-549 = test system: BT-549
CAKI-1 = test system: CAKI-1
CCRF-CEM = test system: CCRF-CEM
COLO 205 = test system: COLO 205
DU-145 = test system: DU-145
EKVX = test system: EKVX
HCC 2998 = test system: HCC 2998
HCT-116 = test system: HCT-116
HCT-15 = test system: HCT-15
HL-60 = test system: HL-60
HOP-62 = test system: HOP-62
HT-29 = test system: HT-29
Hs-578T = test system: Hs-578T
IGROV-1 = test system: IGROV-1
K562 = test system: K562
KM12 = test system: KM12
LOX IMVI = test system: LOX IMVI
M14 = test system: M14
MCF7 = test system: MCF7
MDA-MB-231 = test system: MDA-MB-231
MDA-MB-435 = test system: MDA-MB-435
MDA-N = test system: MDA-N
MOLT-4 = test system: MOLT-4
Malme-3M = test system: Malme-3M
NCI-H226 = test system: NCI-H226
NCI-H23 = test system: NCI-H23
NCI-H460 = test system: NCI-H460
NCI-H522 = test system: NCI-H522
NCI/ADR-RES = test system: NCI/ADR-RES
OVCAR-3 = test system: OVCAR-3
OVCAR-4 = test system: OVCAR-4
OVCAR-5 = test system: OVCAR-5
OVCAR-8 = test system: OVCAR-8
RPMI-8226 = test system: RPMI-8226
SF-268 = test system: SF-268
SF-295 = test system: SF-295
SF-539 = test system: SF-539
SK-MEL-28 = test system: SK-MEL-28
SK-MEL-2 = test system: SK-MEL-2
SK-MEL-5 = test system: SK-MEL-5
SN12C = test system: SN12C
SNB-19 = test system: SNB-19
SR = test system: SR
SW-620 = test system: SW-620
T47D = test system: T47D
TK-10 = test system: TK-10
U-251 = test system: U-251
UACC-257 = test system: UACC-257
UACC-62 = test system: UACC-62
UO-31 = test system: UO-31
A498 = test system: A498
HOP-92 = test system: HOP-92
PC-3 = test system: PC-3
RXF 393 = test system: RXF 393
SNB-75 = test system: SNB-75
SK-OV-3 = test system: SK-OV-3

Measured: GI50

COc1ccc(N[S+]([O-])c2ccc(OC)cc2)cc1 (stereo unspecified)
11.2 µM: HCT-15
inactive: 786-0 84.9 µM | A549 33.6 µM | ACHN 95.1 µM | BT-549 14.8 µM | CAKI-1 52.7 µM | CCRF-CEM 45.5 µM | COLO 205 72.1 µM | DU-145 64.9 µM | EKVX 88.1 µM | HCC 2998 41.3 µM | HCT-116 41.2 µM | HL-60 41.2 µM | HOP-62 61.8 µM | HT-29 39.9 µM | Hs-578T 34 µM | IGROV-1 5.53 µM | K562 26.1 µM | KM12 7.8 µM | LOX IMVI 17.4 µM | M14 > 100 µM | MCF7 31.6 µM | MDA-MB-231 37.9 µM | MDA-MB-435 15.9 µM | MDA-N 41.3 µM | MOLT-4 35.4 µM | Malme-3M 25.5 µM | NCI-H226 55.5 µM | NCI-H23 > 100 µM | NCI-H460 29 µM | NCI-H522 21.5 µM | NCI/ADR-RES 56.6 µM | OVCAR-3 > 100 µM | OVCAR-4 > 100 µM | OVCAR-5 > 100 µM | OVCAR-8 82.2 µM | RPMI-8226 47 µM | SF-268 6.75 µM | SF-295 24 µM | SF-539 14.6 µM | SK-MEL-28 > 100 µM | SK-MEL-2 16.9 µM | SK-MEL-5 18.8 µM | SN12C > 100 µM | SNB-19 60.1 µM | SR 26.9 µM | SW-620 64.6 µM | T47D 15.5 µM | TK-10 > 100 µM | U-251 12.5 µM | UACC-257 69 µM | UACC-62 14.6 µM | UO-31 12.5 µM

O=C(O)CCC[C@]1(O)O[C@@]2(CCCC2=O)[C@]2(O)CCC[C@@]21O
> 100 µM: HCT-15
active: NCI-H522 0.106 µM
inactive: 786-0 > 100 µM | A498 > 100 µM | A549 > 100 µM | ACHN > 100 µM | BT-549 > 100 µM | CAKI-1 26.5 µM | COLO 205 > 100 µM | DU-145 > 100 µM | EKVX > 100 µM | HCT-116 > 100 µM | HL-60 > 100 µM | HOP-62 > 100 µM | HOP-92 > 100 µM | HT-29 > 100 µM | Hs-578T > 100 µM | IGROV-1 > 100 µM | K562 > 100 µM | KM12 > 100 µM | LOX IMVI > 100 µM | M14 > 100 µM | MCF7 > 100 µM | MDA-MB-231 > 100 µM | MDA-N > 100 µM | MOLT-4 > 100 µM | Malme-3M > 100 µM | NCI-H226 > 100 µM | NCI-H23 > 100 µM | NCI-H460 > 100 µM | NCI/ADR-RES > 100 µM | OVCAR-3 > 100 µM | OVCAR-4 > 100 µM | OVCAR-5 > 100 µM | OVCAR-8 > 100 µM | PC-3 > 100 µM | RPMI-8226 > 100 µM | RXF 393 > 100 µM | SF-268 > 100 µM | SF-295 4.24 µM | SF-539 > 100 µM | SK-MEL-28 > 100 µM | SK-MEL-2 > 100 µM | SK-MEL-5 > 100 µM | SN12C > 100 µM | SNB-19 > 100 µM | SNB-75 > 100 µM | SR > 100 µM | SW-620 > 100 µM | T47D > 100 µM | TK-10 > 100 µM | U-251 > 100 µM | UACC-257 > 100 µM | UACC-62 > 100 µM | UO-31 > 100 µM

O/N=N\c1nc(-c2ccccn2)nc2ccccc12
active: CCRF-CEM 0.441 µM | HL-60 0.984 µM | HT-29 0.611 µM | MOLT-4 0.373 µM | OVCAR-3 0.743 µM
1.53 µM: HCT-15
inactive: 786-0 3.68 µM | A498 32.4 µM | A549 45.3 µM | ACHN 2.14 µM | BT-549 20.8 µM | CAKI-1 2.12 µM | COLO 205 6.15 µM | DU-145 15 µM | EKVX 18.2 µM | HCC 2998 9.71 µM | HCT-116 3.33 µM | HOP-62 1.98 µM | Hs-578T > 100 µM | IGROV-1 17 µM | K562 2.23 µM | KM12 20.6 µM | M14 4.09 µM | MCF7 4.76 µM | MDA-MB-231 13.3 µM | MDA-N 19.6 µM | Malme-3M 1.24 µM | NCI-H226 12.7 µM | NCI-H23 35.2 µM | NCI-H460 2.49 µM | NCI-H522 1.89 µM | NCI/ADR-RES 7.78 µM | OVCAR-4 8.05 µM | OVCAR-5 27.1 µM | OVCAR-8 12.4 µM | PC-3 11.7 µM | SF-268 11.7 µM | SF-295 22 µM | SF-539 17.1 µM | SK-MEL-28 16 µM | SK-MEL-2 4.68 µM | SK-MEL-5 2.77 µM | SK-OV-3 55.5 µM | SN12C 23 µM | SNB-19 42.3 µM | SNB-75 20.3 µM | SR 2.38 µM | SW-620 5.35 µM | T47D 2.83 µM | TK-10 17.4 µM | U-251 17.5 µM | UACC-257 7.69 µM | UACC-62 7.18 µM | UO-31 18.7 µM

COC(=O)[C@@]12OC[C@]34[C@H]([C@@H](O)[C@@H]1O)[C@@]1(C)CC(=O)C(OC(C)=O)=C(C)[C@@H]1C[C@H]3OC(=O)[C@H](OC(=O)C=C(C)C)[C@@H]24
1.77 µM: HCT-15
inactive: ACHN 1.82 µM | BT-549 1.52 µM | CAKI-1 2.7 µM | DU-145 1.34 µM | EKVX 1.44 µM | MDA-MB-231 1.81 µM | NCI/ADR-RES 12.8 µM | OVCAR-5 1.75 µM | SN12C 1.17 µM | SNB-75 1.44 µM | UO-31 2.64 µM
active: 786-0 0.895 µM | A498 0.43 µM | A549 0.838 µM | COLO 205 0.764 µM | HOP-62 0.607 µM | HOP-92 0.813 µM | HT-29 0.543 µM | Hs-578T 0.857 µM | KM12 0.596 µM | M14 0.755 µM | MDA-MB-435 0.738 µM | MDA-N 0.714 µM | NCI-H226 0.746 µM | NCI-H23 0.574 µM | OVCAR-4 0.752 µM | OVCAR-8 0.743 µM | PC-3 0.948 µM | RXF 393 0.75 µM | SF-268 0.853 µM | SF-295 0.82 µM | SK-MEL-2 0.656 µM | SNB-19 0.627 µM | SW-620 0.914 µM | T47D 0.977 µM | TK-10 1 µM | UACC-257 0.557 µM | UACC-62 0.721 µM
